In the supplement of paper PMC10307832:

Legend:
Assay in all cases: relative viability (nuclei count vs DMSO), 5 days (fraction); higher = more cells survive
Dovitinib + Navitoclax = compound: CN1CCN(c2ccc3nc(-c4c(N)c5c(F)cccc5[nH]c4=O)[nH]c3c2)CC1 [Dovitinib] + CC1(C)CCC(c2ccc(Cl)cc2)=C(CN2CCN(c3ccc(C(=O)NS(=O)(=O)c4ccc(N[C@H](CCN5CCOCC5)CSc5ccccc5)c(S(=O)(=O)C(F)(F)F)c4)cc3)CC2)C1 [Navitoclax] (partner 0.5 µM)
Outline: (§1)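 A single step with final 0.05% Triton X-100, 1% formaldehyde and 1 ug/ml Hoechst fixed the cells and stained nuclei 5 days after treatment. Lung cancer cell lines in 1536-well plates had been treated by pin tool the day after seeding with one drug alone or a fixed anchor-drug dose plus five library-drug doses (not always all listed) in √10 steps, and nuclei were counted on 4× images. Relative viability is the ratio of nuclei in treated wells to nuclei in vehicle wells, taken as the median of duplicate plates.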

Dovitinib + Tozasertib = compound: CN1CCN(c2ccc3nc(-c4c(N)c5c(F)cccc5[nH]c4=O)[nH]c3c2)CC1 [Dovitinib] + Cc1cc(Nc2cc(N3CCN(C)CC3)nc(Sc3ccc(NC(=O)C4CC4)cc3)n2)n[nH]1 [Tozasertib] (partner 0.1 µM)
Outline: as §1

Dovitinib + Vorinostat = compound: CN1CCN(c2ccc3nc(-c4c(N)c5c(F)cccc5[nH]c4=O)[nH]c3c2)CC1 [Dovitinib] + O=C(CCCCCCC(=O)Nc1ccccc1)NO [Vorinostat] (partner 1 µM)
Outline: as §1

Dovitinib + Crizotinib = compound: CN1CCN(c2ccc3nc(-c4c(N)c5c(F)cccc5[nH]c4=O)[nH]c3c2)CC1 [Dovitinib] + C[C@@H](Oc1cc(-c2cnn(C3CCNCC3)c2)cnc1N)c1c(Cl)ccc(F)c1Cl [Crizotinib] (partner 1 µM)
Outline: as §1

Cell Line | relative viability (Dovitinib + Navitoclax; first compound 0.02 µM) | relative viability (Dovitinib + Navitoclax; first compound 0.06325 µM) | relative viability (Dovitinib + Navitoclax; first compound 0.2 µM) | relative viability (Dovitinib + Navitoclax; first compound 0.6325 µM) | relative viability (Dovitinib + Navitoclax; first compound 2 µM) | relative viability (Dovitinib + Tozasertib; first compound 0.02 µM) | relative viability (Dovitinib + Tozasertib; first compound 0.06325 µM) | relative viability (Dovitinib + Tozasertib; first compound 0.2 µM) | relative viability (Dovitinib + Tozasertib; first compound 0.6325 µM) | relative viability (Dovitinib + Tozasertib; first compound 2 µM) | relative viability (Dovitinib + Vorinostat; first compound 0.02 µM) | relative viability (Dovitinib + Vorinostat; first compound 0.06325 µM) | relative viability (Dovitinib + Vorinostat; first compound 0.2 µM) | relative viability (Dovitinib + Vorinostat; first compound 0.6325 µM) | relative viability (Dovitinib + Vorinostat; first compound 2 µM) | relative viability (Dovitinib + Crizotinib; first compound 0.02 µM) | relative viability (Dovitinib + Crizotinib; first compound 0.06325 µM) | relative viability (Dovitinib + Crizotinib; first compound 0.2 µM) | relative viability (Dovitinib + Crizotinib; first compound 0.6325 µM) | relative viability (Dovitinib + Crizotinib; first compound 2 µM)
NCI-H322M | 1.17 | 1.25 | 1.21 | 1.27 | 1.23 | 0.482 | 0.497 | 0.523 | 0.436 | 0.493 | 0.768 | 0.831 | 0.807 | 0.926 | 0.84 | 0.893 | 0.874 | 0.976 | 0.928 | 1.06
NCI-H1666 | 0.835 | 0.966 | 0.887 | 0.901 | 1.03 | 0.582 | 0.651 | 0.581 | 0.525 | 0.625 | 1.15 | 0.919 | 1.11 | 1.04 | 1.05 | 0.966 | 1.14 | 1.08 | 0.964 | 1.04
NCI-H2087 | 1.07 | 0.941 | 1.01 | 1.07 | 0.981 | 0.196 | 0.271 | 0.308 | 0.209 | 0.286 | 0.817 | 0.79 | 0.685 | 0.837 | 0.803 | 0.817 | 0.66 | 0.878 | 0.796 | 0.778
LU99A | 0.78 | 0.787 | 0.747 | 0.774 | 0.727 | 0.222 | 0.226 | 0.272 | 0.239 | 0.251 | 0.456 | 0.555 | 0.46 | 0.615 | 0.624 | 0.548 | 0.597 | 0.601 | 0.561 | 0.547
HCC-366 | 1.07 | 1.16 | 1.02 | 1.08 | 0.971 | 0.0642 | 0.143 | 0.14 | 0.127 | 0.111 | 0.325 | 0.353 | 0.338 | 0.429 | 0.385 | 0.571 | 0.6 | 0.486 | 0.61 | 0.562
EKVX | 0.923 | 0.989 | 1.1 | 0.989 | 0.883 | 0.431 | 0.367 | 0.372 | 0.431 | 0.38 | 0.799 | 0.776 | 0.836 | 0.75 | 0.739 | 0.937 | 0.975 | 1.08 | 0.988 | 0.906
NCI-H1755 | 1.02 | 1 | 1.02 | 0.992 | 1.05 | 0.53 | 0.62 | 0.554 | 0.561 | 0.555 | 0.798 | 0.83 | 0.884 | 0.935 | 0.776 | 0.861 | 0.878 | 0.834 | 0.852 | 0.86
NCI-H647 | 0.958 | 1.04 | 1.14 | 1.04 | 0.949 | 0.297 | 0.317 | 0.452 | 0.279 | 0.315 | 0.52 | 0.658 | 0.659 | 0.434 | 0.851 | 1.03 | 1.14 | 1.24 | 1.01 | 1.1
LC-2-ad | 0.463 | 0.603 | 0.403 | 0.382 | 0.376 | 0.563 | 0.487 | 0.465 | 0.369 | 0.498 | 0.674 | 0.735 | 0.712 | 0.758 | 0.804 | 0.486 | 0.436 | 0.5 | 0.453 | 0.465
HCC-827 | 1.03 | 1.02 | 1.07 | 1 | 0.974 | 0.44 | 0.455 | 0.441 | 0.43 | 0.469 | 0.799 | 0.867 | 0.876 | 0.841 | 0.805 | 0.91 | 0.867 | 0.932 | 0.93 | 0.94
HCC-78 | 0.784 | – | 0.827 | 0.754 | 0.772 | 0.712 | 0.404 | 0.544 | 0.464 | 0.576 | 0.413 | 0.415 | 0.39 | 0.533 | 0.431 | 0.334 | – | 0.356 | 0.347 | 0.363
NCI-H2085 | 1.05 | 1.09 | 1.08 | 1.07 | 1.1 | 0.83 | 0.871 | 0.851 | 0.824 | 0.84 | 0.808 | 0.821 | 0.819 | 0.765 | 0.801 | 0.753 | 0.904 | 0.851 | 0.856 | 0.9
PC-14 | 0.998 | 1.08 | 1 | 0.988 | 0.939 | 0.542 | 0.649 | 0.684 | 0.644 | 0.643 | 0.771 | 0.938 | 0.778 | 0.694 | 0.757 | 0.815 | 0.906 | 0.865 | 0.862 | 0.893
A-427 | 0.91 | 0.933 | 0.942 | 0.902 | 0.822 | 0.222 | 0.201 | 0.203 | 0.162 | 0.225 | 0.83 | 0.845 | 0.895 | 0.941 | 0.991 | 0.854 | 0.812 | 0.85 | 0.708 | 0.819
H3255 | 0.627 | 0.532 | 0.569 | 0.559 | 0.582 | 0.741 | 0.617 | 0.766 | 0.638 | 0.629 | 0.684 | 0.886 | 0.862 | 0.778 | 0.711 | 0.898 | 0.903 | 0.854 | 0.929 | 0.871
HCC-44 | 0.954 | 0.925 | 0.923 | 0.974 | 0.876 | 0.724 | 1.03 | 0.99 | 0.884 | 0.938 | 1.08 | 1.1 | 1.08 | 1.09 | 1.08 | 0.668 | 0.793 | 0.76 | 0.745 | 0.777
